Legend:
[1] = system: wild type rice (Oryza sativa L. japonica. cv. Nipponbare) plants; test: Glyphosate resistance verification in N6 culture medium, wild type rice plants; type: in vivo; settings: N6 culture medium containing 1 mg/L glyphosate, recorded after 10 days
Method: (§1) The three TIPS EPSPS site mutation lines (T0-1, T0-5 and T0-7) obtained from Example 4 and wild type rice (Oryza sativa L. japonica. cv. Nipponbare) plants were placed into an N6 culture medium containing 1 mg/L glyphosate, and cultured under the routine culture conditions. The resistance results were recorded after 10 days. Verification was carried out in more than 3 plants for each TIPS EPSPS site mutation line.

[2] = system: TIPS EPSPS site mutation lines (T0-1, T0-5 and T0-7); test: Glyphosate resistance verification in N6 culture medium, TIPS EPSPS site mutation lines; type: in vivo, Oryza sativa L. japonica. cv. Nipponbare; settings: N6 culture medium containing 1 mg/L glyphosate, recorded after 10 days, TIPS EPSPS mutant rice T0-1, T0-5, T0-7
Method: as §1

SMILES: O=C(O)CNCP(=O)(O)O [glyphosate]
- resistance results (plant condition) [1]: chlorotic and wilting to die
- resistance results (plant condition) [2]: survived normally
